System: Bacillus atrophaeus spores
Assay: Qualitative antibacterial effects on spore strips in Releasat medium
Format: cell-based
Settings: one week treatment
Method: The antibacterial effects of genipin solutions on Bacillus atrophaeus spores was assessed. Using aseptic technique, B. atrophaeus mini spore strips (N=4 per group) with 1.2×10^6 spores per strip (North American Science Associates, Inc., Northwood, Ohio, USA) were either untreated, or treated with either 1 mL PBS, 0.625% genipin in PBS (1.4×10^13 genipin molecules per spore), 90% ethanol, 10% genipin in 90% ethanol (2.2×10^14 genipin molecules per spore), or 10% formalin for one week. Ten percent genipin was used in 90% ethanol for direct comparison to 10% formalin. Solutions were passed through a 0.2 μm Whatman filter (Fisher Scientific, Pittsburgh, Pa., USA) prior to being used to remove extraneous bacteria.
After treating the spore strips for one week they were transferred to Releasat® rapid-readout color changing vials (SGM Biotech, Bozeman, Mont., USA). Releasat® vials have specially formulated soybean-casein digest medium and a pH indicator designed to change color from orange to yellow in the presence of B. atrophaeus growth within 72 hours or remain orange if the spore strips are sterile. The spore strips treated with 10% genipin in 90% ethanol were removed from their respective medium vials and washed in 10 mL of sterile 90% ethanol for 15 minutes after it was noticed that within 90 minutes of placement into the Releasat® medium that the color changed from orange to brown (genipin-induced color change). These spore strips were placed in new Releasat® vials after washing. Spores were incubated at 37° C. and vials were checked after 24, 48, and 72 hours for color change and assessments of turbidity.

| Structure (SMILES) | color of Releasat medium (orange sterile, yellow growth) (10% formalin, read after 72 hours) | turbidity of medium (0.625% genipin in PBS) | color of Releasat medium (orange sterile, yellow growth) (0.625% genipin in PBS, within 24 hours) | turbidity of medium (10% genipin in 90% ethanol) | color of Releasat medium (orange sterile, yellow growth) (10% genipin in 90% ethanol, within 24 hours) |
| --- | --- | --- | --- | --- | --- |
| C=O [formalin, reference compound] | remained orange | – | – | – | – |
| COC(=O)C1=CO[C@@H](O)C2C(CO)=CC[C@H]12 (stereo in doubt) [genipin, methyl (1R,2R,6S)-2-hydroxy-9-(hydroxymethyl)-3-oxabicyclo [4.3.0]nona-4,8-diene-5-carboxylate] | – | less turbid than the PBS and untreated control at all time points | changed to yellow | less turbid than the 90% ethanol and untreated control after 24 and 48 hours only | changed to yellow |

— patent US20130225669A1 (priority 2012, published 2013)
